Results from article PMC7894522, “Structure Based Design of Bicyclic Peptide Inhibitors of RbAp48” (Angewandte Chemie (International Ed. in English), 2020).
Starred links: 1 amine or outer side, 2 acyl side, 3 side chain; linkers in the order of their positions; H or OH if unused. Positions of bridges follow the written chain, without caps; N, C: chain ends. Residues, ends and D or L forms follow the SMILES beside them. TBMB = c1c(C[*:1])cc(C[*:3])cc1C[*:2]

System: U2OS cells
Experiment: Morphological cell painting assay
Format: cell-based
Conditions: U2OS cells, 20 h, 579 parameters, fraction of significantly changed parameters vs DMSO; 10, 3 or 1 µM
From the text: Encouraged by the promising results from the pulldown experiment, and in order to get insight into bioactivity and possible mode of action, we analyzed peptide 33 in a morphological cell painting assay. The cell painting assay is a target agnostic assay which determines a cells morphological profile after treatment with a compound of interest and compares it to the profiles of a set of reference compounds. ^[22] By identifying reference compounds with a similar profile a hypothesis of the compounds mode of action can be generated based on their annotated targets. ^[23] U2OS cells were treated with our compound and 579 parameters were analyzed. […] We therefore synthesized a variant modified with an N‐terminal TAT sequence to enhance its permeability (compound 49, see Table 1 and Supplemental Figure 4). ^[24] […] Applying compound 49 to the cell painting assay led to an induction of 5.9 % and the corresponding profile was compared to the set of 3000 reference compounds. […] To validate this hypothesis, we exposed U2OS cells to compound 49 and evaluated the levels of p53 by Western blot. […] The exact mechanism by which the compounds elevate levels of p53 requires further investigation. However, it has previously been shown that the NuRD complex, of which RbAp48 is a core component, is able to deacetylate p53 and thereby modulate its stability. ^[26] The effect is mediated by the MTA family of proteins from which the compounds described here are derived. […]
The described assay follows closely the method described by Bray et al. Initially, 5 µl U2OS medium were added to each well of a 384 -well plate (PerkinElmer CellCarrier -384 Ultra). Subsequently, U2OS cell were seeded with a density of 1600 cells per well in 20 µl medium. The plate was incubated for 10 min at the ambient temperatu re, followed by an a dditional 4 h incubation (37 °C, 5 % CO2). Compound treatment was performed with the Echo 520 acoustic dispenser (Labcyte) at final concentrations of 10 µM, 3 µM or 1 µM. Incubation with compound was performed for 20 h (37 °C, 5 % CO2). Subsequently, mitoc hondria were stained with Mito Tracker Deep Red (Thermo Fisher Scientific, Cat. No. M22426). The Mito Tracker Deep Red stock solution (1 mM) was diluted to a final concentration of 100 nM in prewarmed medium. The medium was removed fr om the plate leaving 1 0 µl residual volume and 25 µl of the Mito Tracker solution were added to each well. 22 The plate was incubated for 30 min in darkness (37 °C, 5 % CO2). To fix the cells 7 µl of 18.5 % formaldehyde in PBS were added, resulting in a fi nal formaldehyde conce ntration of 3.7 %. Subsequently, the plate was incubated for another 20 min in darkness (RT) and washed three times with 70 µl of PBS. (Biotek Washer Elx405). Cells were permeabilized by addition of 25 µl 0.1 % Triton X -100 to each well, followed by 15 min incubation (RT) in darkness. The cells were washed three times with PBS leaving a final volume of 10 µl. To each well 25 µl of a staining solution were added, which contains 1 % BSA, 5 µl/mL Phalloidin (Thermo Fisher Scientific, A123 81), 25 µg/ml Concanav alin A (Thermo Fisher Scientific, Cat. […]
conjugate (Thermo Fisher Scientific, Cat. No. W11262) and […] SYTO 14 solution (Thermo Fisher Scientific, Cat. No. S7576). The plate is incubated for 30 min (RT) in darkness and washed three times with 70 µl PBS. After the final washing step the PBS was not aspirated. The plates were sealed and centrifuged for 1 min at 500 rpm.
The plates were prepare d in triplicates with shifted layouts to reduce plate effects and imaged using a Micro XL High-Content Screening System (Molecular Devices) in 5 channels (DAPI: Ex350 -400/ Em410- […]
The generated images were processed with the CellProfiler package (https://cellprofiler.org/, version 3.0.0) on a computing cluster of the Max Planck Society to extract 1716 cell features (parameters) per microscope site. The data was then further aggregated as medians per well (9 sites -> 1 well), then […]

## CC(=O)N[C@H]1CSCc2cc3cc(c2)CSC[C@@H](C(=O)N[C@@H](C)C(N)=O)NC(=O)[C@@H]2CCCN2C(=O)[C@H](CCCCN)NC(=O)[C@H](Cc2ccc(O)cc2)NC(=O)[C@@H]2CCCN2C(=O)[C@H](CCCNC(=N)N)NC(=O)[C@H](CCCNC(=N)N)NC(=O)[C@H](C)NC(=O)[C@H](CSC3)NC(=O)[C@H](CCCNC(=N)N)NC(=O)[C@H](CCCCN)NC(=O)[C@H]([C@@H](C)O)NC1=O [Peptide 33] (Ac-CTKRCARRPYKPCA-NH2; linker 1-5-13 via TBMB)
  induction: no induction
